Assay results published in patent publication EP4608400B1, “COMPOUND FOR TREATMENT OF PAIN” (Initiator Pharma A/S, priority 2022, dated 2024).

System: CCI rats
Test: Rat chronic constriction injury (CCI) model of neuropathic pain
Assay type: in vivo, Sprague-Dawley rats
Conditions: for paw withdrawal duration (pin prick) / weight bearing difference / paw withdrawal threshold (von Frey stimulation): 60 min prior; for paw withdrawal duration (pin prick): vehicle about 14.9 s; for weight bearing difference: vehicle about 51 %; for paw withdrawal threshold (von Frey stimulation): vehicle around 1.1 g
Experimental: All treatments were administered s.c. in a dosing volume of 2 ml/kg 60 min prior to behavioural assessment.
Adult male Sprague-Dawley rats (Harlan Scandinavia, Alleroed, Denmark) were used. They were housed in Macrolon III cages (20 x 14 x 18 cm or 20 x 40 x18 cm; in groups of 2-5 per cage according to weight) containing wood-chip bedding material (3 x 1 x 4 mm). The environment was temperature (20 ± 2°C) and humidity (55 ± 15%) controlled and consisted of a light-dark cycle of 13:11 h (lights on at 06.00 h and off at 19.00 h). Food (Altromin®) and water were available ad libitum. The rats were allowed to habituate to the housing facilities for at least one week prior to being randomly assigned to behavioural experiments. All experiments were performed according to the Ethical Guidelines of the International Association for the Study of Pain (Zimmermann, 1983) and the Danish Committee for Experiments on Animals.
All drug testing in CCI rats was performed blinded by the observer. A 2-3 day drug washout period was allowed, and the studies were conducted between 4-5 weeks after surgery. CCI rats used in this study had also been previously enrolled in similar experiments assessing the efficacy of other compound(s). Only those animals with distinct neuropathic behavior (von Frey response <4 g, pin prick response >10 s) were included in the study. Table C: Experimental groups
Chronic constriction injury procedure. A chronic constriction injury (CCI) was performed in rats (body weight 180-220 g at the time of surgery) under isoflurane anaesthesia as described previously (Bennett and Xie, 1988). The sciatic nerve was exposed at the mid-thigh level proximal to the sciatic trifurcation. Four chromic gut ligatures (4/0) (Ethicon, New Brunswick, NJ) were tied loosely around the nerve, 1-2 mm apart, such that the vascular supply was not compromised. The overlying muscle was closed in layers with 4/0 synthetic absorbable surgical suture. The skin was closed and sutured with 4/0 silk thread.
Behavioural testing of nerve-injured rats. Nerve-injured rats were routinely tested for the presence of pain-like behaviours for up to 5 weeks after surgery, according to previously described methods (Munro et al., 2008). For testing of mechanical hypersensitivity individual rats were removed from their home cage and allowed to habituate for 15 min in a 15 x 20 cm white Plexiglas testing cage, placed upon an elevated metal grid allowing access to the plantar surface of the injured hindpaw. The presence of mechanical allodynia was assessed using a series of calibrated von Frey hairs (lower limit=0.065 and upper limit=19.3 g, Stoelting Co, Wood Dale IL), which were applied to the plantar surface of the hindpaw with increasing force until an individual filament used just started to bend. The filament was applied for a period of 1-2 s and was repeated 5 times at 1-2 s intervals. The filament that induced a reflex paw withdrawal in 3 out of 5 applications was considered to represent the threshold level for a response to occur. The presence of mechanical hyperalgesia was determined by pressing the plantar surface of the hindpaw with the point of a safety pin, at an intensity sufficient to produce a reflex withdrawal response in normal unoperated animals, but at an intensity which was insufficient to penetrate the skin. A cut-off time of 15 s was applied to long withdrawals often seen for the nerve-injured paw.
Changes in hindpaw weight bearing were assessed using an incapacitance tester (Linton Instrumentation, U.K.), which incorporates a dual channel scale used to separately assess the weight distributed to each hindpaw of the rat. Normally, uninjured rats distribute their weight evenly between the two hindpaws (50:50). However, after tissue injury the rat preferentially favours the non-injured hindpaw, such that the weight bearing difference can be used as an index of spontaneous nociception. […]

COc1cc2ccc(O[C@@H]3C[C@H]4CC[C@@H](C3)N4)cc2oc1=O [IP2015, exo-7-[(8-azabicyclo[3.2.1]octan-3-yl)oxy]-3-methoxy-chromen-2-one]
paw withdrawal duration (pin prick) (3 mg/kg s.c.): about 12.3 s
weight bearing difference (3 mg/kg s.c.): about 17%
paw withdrawal threshold (von Frey stimulation) (3 mg/kg s.c.): about 5.7 g
paw withdrawal duration (pin prick) (10 mg/kg s.c.): about 11.1 s
weight bearing difference (10 mg/kg s.c.): about 11%
paw withdrawal threshold (von Frey stimulation) (10 mg/kg s.c.): about 3.6 g
CCI induced weight bearing deficits (overall effect) (3, 10 mg/kg s.c., CCI rats): robust dose-dependent reversal
hindpaw withdrawal threshold to mechanical von Frey stimulation (overall effect) (3, 10 mg/kg s.c., CCI rats): small but significant increase
behavioural observation in CCI rats (10 and especially 30 mg/kg s.c.): extremely alert, and possibly displayed signs of anxiogenic behaviour
